≈ marks a conversion by molar mass, not a printed value.
Tests used:
[1] = test system: HCLO cell line; assay: In vitro concentration required to inhibit HCLO cells; format: functional, cell-based; conditions: Homo sapiens
[2] = test system: HRT-18 cell line; assay: In vitro concentration required to inhibit HRT18 cells; format: functional, cell-based; conditions: Homo sapiens
[3] = test system: MAC16; assay: In vitro concentration required to inhibit MAC 16 cells; format: functional, cell-based; conditions: Mus musculus
[4] = test system: HT-29; assay: In vitro concentration required to inhibit HT-29 cells; format: functional, cell-based; conditions: Homo sapiens
[5] = test system: MAC15A; assay: In vitro concentration required to inhibit MAC 15 A cells; format: functional, cell-based; conditions: Mus musculus
[6] = test system: MAC26; assay: In vitro concentration required to inhibit MAC 26 cells; format: functional, cell-based; conditions: Mus musculus
[7] = test system: Mus musculus; assay: In vivo antitumor activity in murine tumors at a dose of 200 mg/Kg; format: functional
[8] = test system: DLD-1; assay: In vitro concentration required to inhibit DLD1 cells; format: functional, cell-based; conditions: Homo sapiens
[9] = test system: HCT-8; assay: In vitro concentration required to inhibit HCT18 cells; format: functional, cell-based; conditions: Homo sapiens
[10] = test system: K562; assay: In vitro concentration required to inhibit K562 cells; format: functional, cell-based; conditions: Homo sapiens

Compound: O=C(O)Cc1cccc2c(=O)cc(-c3ccccc3)oc12 [MITOFLAXONE]
- IC50 [1]: > 500 µg/mL
- IC50 [2]: 95 µg/mL (≈ 339 µM)
- IC50 [3]: 180 µg/mL (≈ 642 µM)
- IC50 [4]: 390 µg/mL (≈ 1390 µM)
- IC50 [5]: 150 µg/mL (≈ 535 µM)
- IC50 [6]: 208 µg/mL (≈ 742 µM)
- inhibition in vivo at 200 mg/kg [7]: 83%
- IC50 [8]: > 500 µg/mL
- IC50 [9]: 245 µg/mL (≈ 874 µM)
- IC50 [10]: 310 µg/mL (≈ 1110 µM)

— ChEMBL document CHEMBL1127979, “Synthesis and anti-tumour activity of 6-methyl derivatives of flavone-8-acetic acid (FAA)” (Bioorg Med Chem Lett, 1994)
